Laboratory results taken from patent publication US20250282795A1, “EGFR Inhibitors in cancer treatment” (Celyn Therapeutics, Inc., priority 2022, published 2025).

How the values were obtained:
Assay type in all cases: cell-based
Ba/F3 (EGFRwt) = experiment: Cellular growth inhibition assay (CellTiter-Glo), Ba/F3 (EGFRwt); conditions: Mus musculus, BaF3, 72 h; Ba/F3 (Wild type) with 10 ng/ml rhEGF, 3 days of incubation
Protocol: (§1) Example E. Cellular Growth Inhibition Assay
(§2) Ba/F3(Empty vector) (Signosis), Ba/F3(Wild type) (Signosis), Ba/F3(L^858R+T790M) (Signosis), Ba/F3(A767_dupASV) (Signosis), Ba/F3(D770_N771insSVD) (Signosis), Ba/F3(H773_V774insNPH) (Signosis) were seeded at a density of 4000 cells per well in a CellBIND® 384-well Flat Clear Bottom Black Polystyrene Microplates (Coming, USA, Cat #3770) in 45 μl total volume of RPMI (PanEco, Cat #C330, Russia) with […] (HyClone, Cat #SV30160.03) and with 10 ng/ml rmIL-3 (RD systems, USA, Cat #403-ML-025) (for BaBF3(Empty vector)) and with 10 ng/ml rhEGF (ThermoFisher, USA, Cat #PHG0311L) (for BaCF3(Wild type)). 500× compounds solutions in DMSO (Sigma Cat #D2650) were prepared into Cmpnds plate (DiamondWell Plate, Axigen, Cat #P-384-120SQ-C—S) and DMSO only control was included. 1.l of 500× compounds (Cmpnds plate) was added to 49 µl of culture medium into Dilution plate (Diamond Well Plate, Axigen, Cat #P-384-120SQ-C—S), mixed and then 5 μl of 10× compounds solutions were transferred to cells followed by centrifugation at 100 g for 1 min. Final DMSO concentration was 0.2% o. After 3 days of incubation 10.l of CellTiter-Glo (Promega, CAT #G7572) were added to the cells, plate was centrifuged at 100 g for 1 min and luminescence signal was measured using Microplate Reader (CLARIOStar).

Ba/F3 (L858R + T790M) = experiment: Cellular growth inhibition assay (CellTiter-Glo), Ba/F3 (L858R+T790M); conditions: Mus musculus, BaF3, 72 h; 3 days of incubation
Protocol: as §1, §2

Ba/F3 (A767_dupASV) = experiment: Cellular growth inhibition assay (CellTiter-Glo), Ba/F3 (A767_dupASV); conditions: Mus musculus, BaF3, 72 h; 3 days of incubation; read-out: Ba/F3 (A767_dup ASV) CC50
Protocol: as §1, §2

Ba/F3 (D770_N771insSVD) = experiment: Cellular growth inhibition assay (CellTiter-Glo), Ba/F3 (D770_N771insSVD); conditions: Mus musculus, BaF3, 72 h; 3 days of incubation; read-out: Ba/F3 (D770_N771 insSVD) CC50
Protocol: as §1, §2

Ba/F3 (H773_V774insSVD) = experiment: Cellular growth inhibition assay (CellTiter-Glo), Ba/F3 (H773_V774insSVD); conditions: Mus musculus, BaF3, 72 h; 3 days of incubation; read-out: Ba/F3 (H773_V774 insSVD) CC50
[1] = Cellular growth inhibition assay (CellTiter-Glo), Ba/F3 (Empty vector); conditions: mouse, Ba/F3 cells with empty vector; Ba/F3 (Empty vector) with 10 ng/ml rmIL-3, 3 days of incubation
Protocol: as §1, §2

| SMILES | CC50 (Ba/F3 (EGFRwt)) | CC50 (Ba/F3 (L858R + T790M)) | CC50 (Ba/F3 (A767_dupASV)) | CC50 (Ba/F3 (D770_N771insSVD)) | CC50 (Ba/F3 (H773_V774insSVD)) | CC50 at 3 days [1] |
| --- | --- | --- | --- | --- | --- | --- |
| COc1c(F)cccc1Nc1c2[nH]c3c1C(=O)NCC3CCCCN(C)CCOc1cnccc1-2 (stereo not drawn) [Compound 127, 19-[(3-Fluoro-2-methoxyphenyl)amino]-8-methyl-6,7,8,9,10,11,12,12a,13,14-decahydro-16,18-methenodipyrido[3,4-i:4′,3′-m][1,4,11]oxadiazacyclotetradecin-15(17H)-one] | 1 to 10 µM | > 10 µM | 1 to 10 µM | > 10 µM | > 10 µM | > 10 µM |
| COc1c(F)cccc1Nc1c2[nH]c3c1C(=O)NC(CC=CCOCCOc1cnccc1-2)C3 (stereo not drawn) [Compound 128, 20-(3-fluoro-2-methoxyanilino)-2,3,5,8,9,10-hexahydro-9,13-methano-12,15-(metheno)pyrido[3,4-e][1,4,8,12]dioxadiazacycloheptadecin-11(14H)-one] | 1 to 10 µM | > 10 µM | 1 to 10 µM | > 10 µM | > 10 µM | > 10 µM |
| COc1c(F)cccc1Nc1c2[nH]c3c1C(=O)NCC3CCCCCCN1CCCC(COc3cnccc3-2)C1 (stereo not drawn) [Compound 129, 24-(3-fluoro-2-methoxyanilino)-7,8,9,10,13,14,15,16,17,17a,18,19-dodecahydro-6H,12H-7,11-methano-21,23-(metheno)dipyrido[3,4-b: 4′,3′-f][1,5,14]oxadiazacyclononadecin-20(22H)-one] | 0.1 to 1 µM | 1 to 10 µM | 0.001 to 0.01 µM | 0.01 to 0.1 µM | 0.1 to 1 µM | > 10 µM |
| COc1c(F)cccc1Nc1c2[nH]c3c1C(=O)NCC3CC(=O)N1CCN(CCOc3cnccc3-2)CC1 (stereo not drawn) [Compound 131, 20-(3-fluoro-2-methoxyanilino)-6,7,9,10,13,13a,14,15-octahydro-12H-8,11-ethano-17,19-(metheno)dipyrido[3,4-j: 4′,3′-n][1,4,7,12]oxatriazacyclopentadecine-12,16(18H)-dione] | 0.01 to 0.1 µM | 0.1 to 1 µM | 0.001 to 0.01 µM | 0.01 to 0.1 µM | 0.1 to 1 µM | 1 to 10 µM |
| COc1c(F)cccc1Nc1c2[nH]c3c1C(=O)NCC3CC(=O)NCC(=O)NCCCOc1cnccc1-2 (stereo not drawn) [Compound 132, 21-(3-fluoro-2-methoxyanilino)-6,7,8,9,11,12,14,14a,15,16-decahydro-18,20-(metheno)dipyrido[3,4-k: 4′,3′-o][1,5,8,13]oxatriazacyclohexadecine-10,13,17(19H)-trione] | > 10 µM | > 10 µM | 1 to 10 µM | > 10 µM | > 10 µM | > 10 µM |
| COc1c(F)cccc1Nc1c2[nH]c3c1C(=O)NCC3CCCOCCN(C)CCCOc1cnccc1-2 (stereo not drawn) [Compound 145, 22-(3-fluoro-2-methoxyanilino)-9-methyl-6,7,8,9,10,11,13,14,15,15a,16,17-dodecahydro-19,21-(metheno)dipyrido[3,4-i: 4′,3′-m][1,8,4,12]dioxadiazacycloheptadecin-18(20H)-one] | > 10 µM | > 10 µM | 0.01 to 0.1 µM | 0.01 to 0.1 µM | 0.1 to 1 µM | > 10 µM |
| COc1c(F)cccc1Nc1c2[nH]c3c1C(=O)NC[C@@H]3CC(=O)N1CCC[C@H]1C(=O)NCCCOc1cnccc1-2 [Compound 147, (16aS,22aS)-23-(3-fluoro-2-methoxyanilino)-14,15,16a,17,18,19,22,22a-octahydro-2H,12H-4,6-(metheno)dipyrido[3,4-k: 4′,3′-o]pyrrolo[2,1-g][1,5,8,13]oxatriazacyclohexadecine-3,16,21(1H,5H,13H)-trione] | > 10 µM | > 10 µM | > 10 µM | > 10 µM | > 10 µM | > 10 µM |
| COc1c(F)cccc1Nc1c2[nH]c3c1C(=O)NC[C@H]3CC(=O)N1CCC[C@H]1C(=O)NCCCOc1cnccc1-2 [Compound 148, (16aS,22aR)-23-(3-fluoro-2-methoxyanilino)-14,15,16a,17,18,19,22,22a-octahydro-2H,12H-4,6-(metheno)dipyrido[3,4-k: 4′,3′-o]pyrrolo[2,1-g][1,5,8,13]oxatriazacyclohexadecine-3,16,21(1H,5H,13H)-trione] | > 10 µM | > 10 µM | > 10 µM | > 10 µM | > 10 µM | > 10 µM |
| COc1c(F)cccc1Nc1c2[nH]c3c1C(=O)NCC3CC(=O)N(C)CC(=O)NCCCOc1cnccc1-2 (stereo not drawn) [Compound 149, 21-(3-fluoro-2-methoxyanilino)-12-methyl-6,7,8,9,11,12,14,14a,15,16-decahydro-18,20-(metheno)dipyrido[3,4-k: 4′,3′-o][1,5,8,13]oxatriazacyclohexadecine-10,13,17(19H)-trione] | > 10 µM | > 10 µM | 1 to 10 µM | 1 to 10 µM | > 10 µM | > 10 µM |
| COc1c(F)cccc1Nc1c2[nH]c3c1C(=O)NCC3CC(=O)NCCOCCOCCOc1cnccc1-2 (stereo not drawn) [Compound 150, 23-(3-fluoro-2-methoxyanilino)-6,7,9,10,13,14,16,16a,17,18-decahydro-20,22-(metheno)dipyrido[3,4-m: 4′,3′-q][1,4,7,10,15]trioxadiazacyclooctadecine-15,19(12H,21H)-dione] | > 10 µM | > 10 µM | > 10 µM | > 10 µM | > 10 µM | > 10 µM |
| COc1c(F)cccc1Nc1c2[nH]c3c1C(=O)NCC3CC(=O)N1CCN(CCOCCOc3cnccc3-2)CC1 (stereo not drawn) [Compound 153, 29-(3-Fluoro-2-methoxyanilino)-18,21-dioxa-1,6,10,15,24-pentaazapentacyclo[22.2.2.1^8,110^4,9.0^12,17]nonacosa-8,11(29),12(17),13,15-pentaene-2,7-dione] | > 10 µM | > 10 µM | > 10 µM | > 10 µM | > 10 µM | > 10 µM |
| COc1c(F)cccc1Nc1c2[nH]c3c1C(=O)NC[C@@H]3CCCN1CCO[C@H](COc3cnccc3-2)C1 [Compound 157, (7S)-21-[(3-Fluoro-2-methoxyphenyl)amino]-6,7,9,10,12,13,14,14a,15,16-decahydro-7,11-methano-18,20-methenodipyrido[3,4-k:4′,3′-o][1,4,7,13]dioxadiazacyclohexadecin-17(19H)-one] | > 10 µM | > 10 µM | > 10 µM | > 10 µM | > 10 µM | > 10 µM |
